Values joined by “and” are separate entries in the source; they are usually repeats but may differ in a detail not shown here. Equal entries are not always repeated.
System: ALK fusion
Test: Phase I clinical trial: biomarker analysis of 26 subjects previously treated with at least one ALK inhibitor
[1] = bypass signaling alteration BRCA1
[2] = bypass signaling alteration BRCA2
[3] = bypass signaling alteration CCNE1
[4] = bypass signaling alteration CDKN2A
[5] = bypass signaling alteration EGFR
[6] = bypass signaling alteration IGF1R
[7] = bypass signaling alteration KIT
[8] = bypass signaling alteration MET
[9] = bypass signaling alteration RB1
[10] = bypass signaling alteration TP53

[2H]C([2H])([2H])n1nc2c(c1C#N)-c1cnc(N)c(c1)O[C@H](C)c1cc(F)ccc1C(=O)N(C)C2 [compound A, (10R)-7-amino-12-fluoro-2-(methyl-d3)-10,16-dimethyl-15-oxo-10,15,16,17-tetrahydro-2H-8,4-(metheno)pyrazolo[4,3-h][2,5,11]benzoxadiazacyclotetradecine-3-carbonitrile]
1/8: Progressive disease (ALK fusion V3)
0/1: Progressive disease (ALK fusion V5) | Stable disease (ALK fusion V5) | Disease control rate (CR + PR + SD) (ALK mutation p.E1210K p.D1203N) | Overall response rate (CR + PR) (ALK mutation p.E1210K p.D1203N) | Partial response (ALK mutation p.E1210K p.D1203N) | Stable disease (ALK mutation p.E1210K p.D1203N) | Overall response rate (CR + PR) (ALK mutation p.I1171N) | Partial response (ALK mutation p.I1171N) | Progressive disease (ALK mutation p.I1171N) | Overall response rate (CR + PR) (ALK mutation p.I1171T) | Partial response (ALK mutation p.I1171T) | Progressive disease (ALK mutation p.I1171T) | Disease control rate (CR + PR + SD) [1] | Overall response rate (CR + PR) [1] | Partial response [1] | Stable disease [1] | Progressive disease [2] | Stable disease [2] | Progressive disease [3] | Stable disease [3] | Overall response rate (CR + PR) [4] | Partial response [4] | Progressive disease [4] | Overall response rate (CR + PR) [5] | Partial response [5] | Progressive disease [5] | Disease control rate (CR + PR + SD) [6] | Overall response rate (CR + PR) [6] | Partial response [6] | Stable disease [6] | Progressive disease [7] | Stable disease [7] | Disease control rate (CR + PR + SD) [9] | Overall response rate (CR + PR) [9] | Partial response [9] | Stable disease [9]
1/2: Overall response rate (CR + PR) [8] | Partial response [8] | Stable disease [8]
10/12: Disease control rate (CR + PR + SD) (ALK mutation (any))
0/3: Progressive disease (ALK fusion V2)
1/1: Disease control rate (CR + PR + SD) (ALK fusion V5) | Overall response rate (CR + PR) (ALK fusion V5) | Partial response (ALK fusion V5) | Progressive disease (ALK mutation p.E1210K p.D1203N) | Disease control rate (CR + PR + SD) (ALK mutation p.I1171N) | Stable disease (ALK mutation p.I1171N) | Disease control rate (CR + PR + SD) (ALK mutation p.I1171T) | Stable disease (ALK mutation p.I1171T) | Progressive disease [1] | Disease control rate (CR + PR + SD) [2] | Overall response rate (CR + PR) [2] | Partial response [2] | Disease control rate (CR + PR + SD) [3] | Overall response rate (CR + PR) [3] | Partial response [3] | Disease control rate (CR + PR + SD) [4] | Stable disease [4] | Disease control rate (CR + PR + SD) [5] | Stable disease [5] | Progressive disease [6] | Disease control rate (CR + PR + SD) [7] | Overall response rate (CR + PR) [7] | Partial response [7] | Progressive disease [9]
7/8: Disease control rate (CR + PR + SD) (ALK fusion V3)
no difference: PFS, mutant TP53 versus wild-type TP53 (ALK TKI resistance subgroup, P=0.235)
3/9: Stable disease [10]
1/6: Progressive disease (ALK mutation p.G1202R)
3/6: Overall response rate (CR + PR) (ALK mutation p.G1202R) | Partial response (ALK mutation p.G1202R)
2/9: Progressive disease [10]
2/12: Progressive disease (ALK mutation (any))
2/3: Stable disease (ALK fusion V2)
62.5%: ORR (subjects with variant 3)
4/9: Overall response rate (CR + PR) [10] | Partial response [10]
7/9: Disease control rate (CR + PR + SD) [10]
11 and 11/26: Partial response (ALK fusion (all 26 subjects))
3/3: Disease control rate (CR + PR + SD) (ALK fusion V2)
2/8: Stable disease (ALK fusion V3) | Overall response rate (CR + PR) (ALK fusion others) | Partial response (ALK fusion others)
5/8: Overall response rate (CR + PR) (ALK fusion V3) | Partial response (ALK fusion V3) | Disease control rate (CR + PR + SD) (ALK fusion others)
20/26: Disease control rate (CR + PR + SD) (ALK fusion (all 26 subjects))
9/26: Stable disease (ALK fusion (all 26 subjects))
0/2: Progressive disease [8]
33.3%: ORR (subjects with variant 1)
50%: ORR (subjects with G1202R mutation)
4/6: Disease control rate (CR + PR + SD) (ALK fusion V1)
2/2: Disease control rate (CR + PR + SD) [8]
11/26: Overall response rate (CR + PR) (ALK fusion (all 26 subjects))
6/26: Progressive disease (ALK fusion (all 26 subjects))
3/8: Progressive disease (ALK fusion others) | Stable disease (ALK fusion others)
2/6: Overall response rate (CR + PR) (ALK fusion V1) | Partial response (ALK fusion V1) | Progressive disease (ALK fusion V1) | Stable disease (ALK fusion V1) | Stable disease (ALK mutation p.G1202R)
5/12: Overall response rate (CR + PR) (ALK mutation (any)) | Partial response (ALK mutation (any)) | Stable disease (ALK mutation (any))
1/3: Overall response rate (CR + PR) (ALK fusion V2) | Partial response (ALK fusion V2)
5/6: Disease control rate (CR + PR + SD) (ALK mutation p.G1202R)
